Measurements reported in patent US8044073B2, “Aminobenzimidazoles and benzimidazoles as inhibitors of respiratory syncytial virus replication” (Tibotec Pharmaceuticals, priority 2003, dated 2011).
Where two headings read alike, the source gives them in different places.

Assays:
[1] = tested on: Respiratory Syncytial Virus; experiment: In vitro screening for activity against RSV (tetrazolium-based colorimetric assay, protection against viral cytopathology); format: cell-based; conditions: human respiratory syncytial virus, read-out: Activity (converted)
In short: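 HeLa cells in Eagle's Basal Medium with 5% FCS and 20 mM Hepes, ~100 TCID50 RSV, five five-fold compound dilutions in triplicate with mock-infected row for cytotoxicity; 7 days at 37 °C, 5% CO2. MTT formazan read at 540 minus 690 nm; EC50 and CC50 from dose-response curves, SI = CC50/EC50.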

[2] = 168 h, Table 1, RSV in HeLa cells, MTT, seven days after infection, pEC50 = -log of EC50 in molar units
[3] = 168 h, Table 3, RSV in HeLa cells, MTT, seven days after infection, pEC50 = -log of EC50 in molar units

SMILES | melting point [°C] | EC50 [1, 3] [nM] | further results
Cc1cccc(N(CCCO)Cc2ccc3nc(N)n(Cc4cccc5cccnc45)c3c2)c1 [Compound 205, 3-[(2-amino-3-quinolin-8-ylmethyl-3H-benzoimidazol-5-ylmethyl)-m-tolyl-amino]-propan-1-ol] | 191 | – | EC50 ([1]; 168 h, Table 5b, RSV in HeLa cells, MTT, seven days after infection, pEC50 = -log of EC50 in molar units): 50.1 nM
Cc1ccc(CCCO)c(NCc2ccc3nc(N)n(Cc4nc(C)ccc4O)c3c2)c1 [Compound 90, 2-(2-amino-6-{[2-(3-hydroxy-propyl)-5-methyl-phenylamino]-methyl}-benzimidazol-1-ylmethyl)-6-methylpyridin-3-ol] | 248 | – | EC50 [1, 2]: 0.0316 nM
Cc1cccc(N(CCN)Cc2ccc3nc(N)n(Cc4nc(C)ccc4O)c3c2)c1.Cl [Compound 131, 2-(2-amino-6-{[(2-amino-ethyl)-m-tolyl-amino]-methyl}-benzoimidazol-1-ylmethyl)-6-methyl-pyridin-3-ol HCl salt] | 200 | 3.98 | –
Cc1ccc(O)c(Cn2c(N)nc3ccc(Cn4c(=O)n(C5CC5)c5ccncc54)cc32)n1 [Compound 183] | > 250 | – | EC50 ([1]; 168 h, Table 3b, RSV in HeLa cells, MTT, seven days after infection, pEC50 = -log of EC50 in molar units): 39.8 nM
Cc1cccc(N(CCO)Cc2ccc3nc(N)n(Cc4nc(C)ccc4O)c3c2)c1 [Compound 129, 2-(2-amino-6-{[(2-hydroxy-ethyl)-m-tolyl-amino]-methyl}-benzoimidazol-1-ylmethyl)-6-methyl-pyridin-3-ol] | 210 | 0.501 | –
Cc1ccc(O)c(Cn2cnc3cc(N)ccc32)n1 [Compound 259] | 248 | – | EC50 ([1]; Table 6, numeric activity values, pEC50 (−log of EC50 in molar units)): > 100000 nM

The next lines start with results.

melting point [°C] | SMILES | EC50 [1, 3] [nM] | further results
184 | Cc1ccc(O)c(Cn2c(N)nc3ccc(CN(CCN4CCOCC4)c4ccccc4CCO)cc32)n1 [Compound 160, 2-(2-Amino-6-{[[2-(2-hydroxy-ethyl)-phenyl]-(2-morpholin-4-yl-ethyl)-amino]-methyl}-benzoimidazol-1-ylmethyl)-6-methyl-pyridin-3-ol] | 7.94 | –
120 | Cc1ccc(O)c(Cn2c(N)nc3ccc(CN(CCCCO)c4cccc(Br)c4)cc32)n1 [Compound 139, 2-(2-Amino-6-{[(3-bromo-phenyl)-(4-hydroxy-butyl)-amino]-methyl}-benzoimidazol-1-ylmethyl)-6-methyl-pyridin-3-ol] | 0.398 | –
204 | CNc1nc2ccc(CN(CCO)c3cccc(C)c3)cc2n1Cc1nc(C)ccc1O [Compound 195, 2-(6-{[(2-hydroxy-ethyl)-m-tolyl-amino]-methyl}-2-methylamino-benzoimidazol-1-ylmethyl)-6-methyl-pyridin-3-ol] | – | EC50 ([1]; 168 h, Table 5a, RSV in HeLa cells, MTT, seven days after infection, pEC50 = -log of EC50 in molar units): 15.8 nM
156 | Cc1ccc(O)c(Cn2c(N)nc3ccc(CNc4cccc(OC(F)(F)F)c4)cc32)n1 [Compound 4, 2-{2-Amino-6-[(3-trifluoromethoxyphenylamino)-methyl]-benzoimidazol-1-ylmethyl}-6-methyl-pyridin-3-ol] | – | EC50 [1, 2]: 2.51 nM
